Measured values from patent publication US8202995B2, “Pharmaceutically acceptable salts of aporphine derivatives and carboxyl group-containing agents and methods for preparing the same” (Standard Chem. & Pharm. Co., Ltd., priority 2008, dated 2012).

Columns and labels:
[1] = Protection from peroxy radical-induced damage, Method A (β-phycoerythrin fluorescence, AAPH); format: biochemical; settings: test compound 5×10^−6 M, AAPH 25 mM, β-phycoerythrin 5 nM, pH 7.4, FIG. 9
From the text: In order to evaluate the effect of test compounds in scavenging hydrophilic peroxy radical, the experiment was executed with reference to the method described by Tsuchiya et al. (Methods Enzymol 1992, 213: 460-472). In the experiment, peroxides will react with fluorescent substances and thus inflect observed fluorescence intensity. Thereby, the effect of test compounds in free radical scavenging can be evaluated by measuring the variation of the fluorescence intensity after the addition of test compounds.
First, to a silicate tube was added a phosphate solution (2 ml, pH 7.4), followed by the addition of β-phycoerythrin (5 nM) to increase relative fluorescence intensity. After 5 minutes, 2,2′-azobis (2-amidinopropane)dihydrochloride (25 mM, AAPH) was added therein. Subsequently, through a fluorescent spectrometry (Shimadzu RF-5301PC, Japan), the fluorescence intensity of β-phycoerythrin was measured by excitation at 540 nm and emission at 570 nm. Then, the test compounds (5×10^−6 M) was further added therein to observe the variation of the fluorescence intensity, in which 0.1% DMSO was taken as a control group.

[2] = system: lipid peroxidase, Dunkin Hartley Guinea pig liver microsomes; experiment: Activity in inhibiting lipid peroxidase (malondialdehyde quantitation); format: biochemical; settings: 10 μM, 20 minutes/37° C.
Description: The assay was executed with reference to the method described in Biochem Biophys Res Commun. Mar. 28, 1986; 135(3): 1015-21.
• (a) Source: Dunkin Hartley Guinea pig liver microsomes • (b) Substrate: Polyunsaturated fatty acid • (c) Vehicle: 1% DMSO • (d) Pre-Incubation Time/Temp: 15 minutes/37° C. • (e) Incubation Time/Temp: 20 minutes/37° C. • (f) Incubation Buffer: 0.25 M Potassium Phosphate, pH 7.4, 0.1 mM EDTA • (g) Quantitation Method: Spectrophotometric quantitation of Malondialdehyde

[3] = system: vascular smooth muscle cells of rats; experiment: Protecting activity in vascular smooth muscle cells against H2O2 (MTT); format: cell-based, rat; settings: 10 μM compound, 30 minutes before H2O2 200 μM for 24 hours, FIG. 17
Description: The vascular smooth muscle cells of rats (2×10^4 cells/mL×1 mL) were quantitatively seeded in 24-well plates, and cultured in Dulbecco's modified Eagle medium (DMEM) with 10% fetal bovine serum (FBS) for 24 hours to achieve cell adhesion. After cell adhesion, the DMEM medium with 10% fetal bovine serum was replaced with a fresh DMEM medium with 0.1% fetal bovine serum to perform cell culture for 48 hours.
Next, each test compound was added in the cultures (final concentration: 0.1, 1, 10 μM). After 30 minutes, H2O2 (200 μM) was added therein to perform reaction for 24 hours in an incubator. Subsequently, in a light-proof environment, MTT (100 μL) was added into each well to perform reaction at 37° C. for 3 hours. The supernatant liquor was removed and then isopropanol (500 μL) was added, followed by shaking for 10 minutes. After standing for 10 minutes, supernatant liquor (200 μL) was transferred into 96-well plates. Finally, the absorbance value (O.D.) was monitored at 540 nm (OD540) and 630 nm (OD630). Based on the measured absorbance values (OD540-OD630), the effect of these test compounds on cell growth can be evaluated, as shown in FIG. 3.

[4] = Free radical scavenging of 1,1-diphenyl-2-picryl-hydrazyl (DPPH); format: biochemical; settings: DPPH 100 μM, 30 min, absorbance at 517 nm, FIGS. 2-8
Description: After 30 min, the absorbance (O.D.) was monitored spectrophotometrically at 517 nm. The activity in inhibiting free radical DPPH results in the decrease of absorbance.

[5] = Oxygen radical absorbing capacity, Method B (fluorescenin fluorescence decay, AAPH); format: biochemical; settings: test substance 1 μM, 18.75 mM AAPH, 0.06 μM fluorescenin, 37° C., pH 7.4, FIGS. 10-16
Description: In order to evaluate the oxygen radical absorbing capacity of test compounds. The automated assay was carried out as described in a previous report by Gillespie and co-workers (Gillespie et al., 2007). The experiment was conducted at 37° C. under pH 7.4 condition with a blank sample in parallel. Briefly, 2, 2′-azobis (2-amidinopropane) dihydrochloride (AAPH) was used as a peroxyl generator. The final reaction mixture for each black microplat in a 96-well microplate assay contained 0.06 μM fluorescenin, 18.75 mM AAPH and appropriate test substance (1 μM) in 75 mM phosphate buffer. Test substance was directly dissolved in DMSO and diluted with 75 mM potassium phosphate buffer (pH 7.4) for analysis. The analyzer was programmed to record the fluorescence of fluorescenin every minute after the addition of AAPH. All fluorescent measurements are expressed relative to the initial reading (excitation at 485 nm and emission at 530 nm) on a FLUOstar Galaxy plate reader (Roche Diagnostic System Inc., Branchburg, N.J.). Raw data were exported from the Fluostar Galaxy software to an Excel (Microsoft, Roselle, Ill.) sheet for further calculations. All the reaction mixtures were prepared in duplicate, and at least three independent assays were performed for each sample. (Gillespie, K M et al., Nature Protocols 2007; 2: 867-870.)

[6] = PROGRESS (n=6105), individuals with cerebrovascular disease; cited from earlier work
[7] = HOPE (n=9297), patients with high cardiovascular risk; cited from earlier work

Row | Molecule | activity in free radical scavenging of DPPH in comparison with carboxyl group-containing agent alone and thaliporphine alone [4] | activity in free radical scavenging of APPH in comparison with carboxyl group-containing agent alone and aporphine alone [5] | other results
1 | COc1cc2c(cc1OC)-c1c(O)c(OC)cc3c1C(C2)N(CC(O)COc1ccccc1OC)CC3 (stereo not shown) [Compound 1] | – | – | protection of β-phycoerythin from peroxy radical AAPH-induced damage (fluorescence degradation) [1]: can protect β-phycoerythin; Inhibition (%) [2]: 64%; inhibition of H2O2-induced damage to vascular smooth muscle cells [3]: significantly inhibited
2 | COc1cc2c(cc1OC)-c1c(O)c(OC)cc3c1C(C2)N(CC(=O)Nc1c(C)cccc1C)CC3 (stereo not shown) [Compound 2] | – | – | protection of β-phycoerythin from peroxy radical AAPH-induced damage (fluorescence degradation) [1]: can protect β-phycoerythin; Inhibition (%) [2]: 70%; inhibition of H2O2-induced damage to vascular smooth muscle cells [3]: slightly inhibited
3 | CC(=O)NC(CS)C(=O)O.COc1cc2c(cc1O)CC1c3c(cc(OC)c(OC)c3-2)CCN1C (stereo not shown) [acetylcysteine salt of thaliporphine, Acetylcysteine salt of Thaliporphine] | much higher activity | much higher activity | –
4 | COc1cc2c(cc1OC)-c1c(OC)c(OC)cc3c1C(C2)N(C)CC3.O=C(O)C=Cc1ccc(Cn2ccnc2)cc1 (stereo not shown) [ozagrel salt of glaucine] | – | much higher activity | –
5 | CCC[C@H](N[C@@H](C)C(=O)N1[C@H](C(=O)O)C[C@@H]2CCCC[C@@H]21)C(=O)OCC [perindopril] | – | – | reduction of recurrent stroke [6]: 28%
6 | CCOC(=O)[C@H](CCc1ccccc1)N[C@@H](C)C(=O)N1[C@H](C(=O)O)C[C@@H]2CCC[C@@H]21 [ramipril] | – | – | reduction of composite outcome (cardiovascular death, myocardial infarction and cerebrovascular accident) [7]: 22%
7 | Atorvastatin salt of Thaliporphine | much higher activity | much higher activity | –
8 | Captopril salt of Thaliporphine | much higher activity | much higher activity | –
9 | Telmisartan salt of Thaliporphine | much higher activity | – | –
10 | bezafibrate salt of thaliporphine | much higher activity | much higher activity | –
11 | nateglinide salt of thaliporphine | much higher activity | much higher activity | –
12 | salsalate salt of thaliporphine | much higher activity | much higher activity | –
